Data as given in PubChem BioAssay AID743267 (Broad Institute, 2014).

What follows are molecules tested on human bronchial epithelial cells, CFTR corrector, plate reader (assay: rescue of ΔF508 CFTR function, airway epithelium – human bronchial epithelial cells, plate reader, cherry-pick, two tests, dose response (AID 743267)). Details: measured here: test 1 replicate run.
Work on `CS(=O)(=O)N1CC(=O)N2[C@H](C1)[C@H](c1ccc(C#Cc3ccc(F)cc3)cc1)[C@@H]2CO` yielded an AC50 of 23.9 µM.
`Cc1ccc(-c2ccc3c(c2)O[C@H](CN(C)Cc2ccccn2)[C@@H](C)CN([C@H](C)CO)S3(=O)=O)cc1` gave an AC50 of 5.08 µM.
`COc1cccc(-c2cccc(-c3nc(C(=O)NCC(F)(F)F)cc4c3[C@H](CCO)N([S@@](=O)C(C)(C)C)C4)c2)c1` showed an AC50 of 2.75 µM.
With `COc1ccc(S(=O)(=O)Nc2ccc3c(c2)C(=O)N([C@@H](C)CO)C[C@@H](C)[C@H](CN(C)Cc2ccc(Oc4ccccc4)cc2)O3)cc1` the AC50 was 0.13 µM.
`COc1cccc(S(=O)(=O)N2C[C@@H]3N[C@H](C2)C3c2ccc(-c3cccc(C)c3)cc2)c1` (some centres undefined) showed an AC50 of 16 µM.
Work on `COC(=O)C[C@@H]1CC[C@@H]2[C@H](COc3ccc(NC(=O)c4ccc(C(F)(F)F)cc4)cc3C(=O)N2C)O1` yielded an AC50 of 19.2 µM.

Same assay, conditions: measured here: test 2 replicate run
Molecule `COc1ccc(C)cc1Nc1c2c(nc3ccccc13)CCC2` has an AC50 of 0.708 µM.
`CN(C[C@H](Cc1ccccc1)N(C[C@H](Cc1ccccc1)N(CCC(C)(C)C)N=O)N=O)N=O` gave an AC50 of 47.9 µM.
`Nc1[nH]nc2ncc3cc4ccccc4nc3c12` showed an AC50 of 17.7 µM.
`Cc1ccc2c(CN3CCN(S(=O)(=O)c4ccc(Cl)cc4)CC3)cc(=O)oc2c1C` was tested, and the AC50 was 11.6 µM.
Work on `CN(C)CCCNc1c2ccccc2nc2ccccc12` yielded an AC50 of 0.879 µM.
In the case of `CC1(C(=O)NCc2ccco2)Cc2c(-c3ccc4c(c3)OCO4)ccnc2O1` (centres undefined), the AC50 is reported as 1.88 µM.
With `Cc1cc(N/N=C/c2ccccc2O)c2ccccc2n1` the AC50 was 21.1 µM.
In the case of `CC1(C)OC(c2ccccc2)=C/C(=C/C=C2C(=O)NC(=S)NC2=O)O1`, the AC50 is reported as 16.9 µM.
Molecule `O=c1c2ccccc2sc2c(CO)ccc(NCCN3CCCCC3)c12` has an AC50 of 5.18 µM.
`COc1ccc(CC(=O)NCc2ccc(-n3cccc3)cc2)cc1OC` gave an AC50 of 3.53 µM.
`CCOc1cc(/C=N/NC(=O)N/N=C/c2ccc(O)c(OCC)c2)ccc1O` gave an AC50 of 4.92 µM.
Work on `COC(=O)c1ccc(/C=C/c2c(-c3ccc(OC)cc3)oc3ccc(N4CCOCC4)cc23)cc1` yielded an AC50 of 16 µM.
`CCN(CC)CCCNc1ccc2ncn3c4ccc(O)cc4c(=O)c1c23` was tested, and the AC50 was 1.8 µM.
`CC(C)CN(CCCNC(=O)CN1C(=O)CSc2ccc(S(=O)(=O)N3CCOCC3)cc21)CC(C)C` was tested, and the AC50 was > 50 µM.
`COc1ccccc1NS(=O)(=O)c1cc(N=N/C(C(=O)Nc2ccc(Cl)cc2)=C(/C)O)ccc1C` showed an AC50 of 36.6 µM.
For `CCN(CC)CCC(=O)Nc1cccc2c1C(=O)c1ccccc1C2=O`, the AC50 was 2.98 µM.
Molecule `Cc1cc(C(=O)N/N=C/c2ccc3c(c2)OCO3)c2ccccc2n1` has an AC50 of 3.76 µM.
Molecule `COc1cccc2c1C(=O)c1c(O)c3c(c(O)c1C2=O)C[C@@](O)(C(C)=O)C[C@@H]3O[C@H]1C[C@H](N)[C@H](O)[C@H](C)O1` has an AC50 of 7.44 µM.
For `Nc1ccn([C@@H]2O[C@H](CO)[C@@H](O)[C@@H]2O)c(=O)n1`, the AC50 was 0.541 µM.
For `O=C(N/N=C/c1cccs1)c1cc(C2CC2)nc2ccccc12`, the AC50 was 6.27 µM.
For `CC(C)Nc1ccc(Nc2ccnc3cc4ccccc4cc23)cc1`, the AC50 was 7.34 µM.
With `COc1cccc(/C=N/NC(=O)C(=O)Nc2ccccc2OC(F)(F)C(F)F)c1O` the AC50 was 9.39 µM.
For `CCOc1ccc(NC(=O)c2cc(OC)nc3ccccc23)cc1`, the AC50 was 1.7 µM.
Molecule `N#C/C(=C(/O)c1ccc(Br)s1)c1nc2ccccc2[nH]1` has an AC50 of 3.88 µM.
Work on `CC(=O)Nc1ccc2cc3ccc(NC(C)=O)cc3nc2c1` yielded an AC50 of 18.1 µM.
`COc1ccc(C(=O)c2cc([N+](=O)[O-])ccc2N2CCN(C)CC2)cc1` was tested, and the AC50 was 3.74 µM.
With `CCOC1=C2[C@@H](CN(S(=O)(=O)c3ccc(C)cc3)[C@H]2c2ccc(Cl)cc2)[C@H]2C(=O)N(c3ccccc3)C(=O)[C@H]2C1` the AC50 was > 50 µM.
`CCSc1nnc(N2C(=O)C(O)=C(C(=O)c3ccco3)C2c2cccc(OC)c2)s1` (centres undefined) was tested, and the AC50 was > 50 µM.
With `COc1ccc(CNS(=O)(=O)c2cc(-c3cc(C)no3)ccc2C(C)C)cc1` the AC50 was 2.16 µM.
With `CCCCn1cnc2c(c(CC#N)nn2-c2ccccc2)c1=N` the AC50 was > 50 µM.
`COc1ccc(C2=NOC(C(=O)NCc3ccccc3)C2)cc1` (centres undefined) was tested, and the AC50 was 2.42 µM.
Molecule `COc1ccccc1/C=N/NC(=O)c1cc2c(OC)c(OC)ccc2[nH]1` has an AC50 of 0.802 µM.
`Nc1c2ccccc2nc2ccccc12` showed an AC50 of 2.62 µM.
With `O=C(Nc1ccccc1)c1nc[nH]c1C(=O)Nc1ccccc1F` the AC50 was 28.3 µM.
`Cc1ccc(C2NC(=O)c3ccccc3N2)c(C)c1` (centres undefined) was tested, and the AC50 was 5.08 µM.
With `CC1(C(=O)NCc2ccccc2)Cc2c(-c3ccc(C(N)=O)cc3)ccnc2O1` (centres undefined) the AC50 was 5.22 µM.
In the case of `COc1cc(/C=C2\SC(=Nc3ccc(Cl)c(C(=O)O)c3)NC2=O)c(Br)c(Br)c1O`, the AC50 is reported as 6.66 µM.
With `COc1cc(C(=O)Nc2ccc3c(c2)CCN3C(C)=O)cc(OC)c1OC` the AC50 was 3.56 µM.
Work on `COc1ccc([N+](=O)[O-])cc1Nc1c2ccccc2nc2ccccc12` yielded an AC50 of 2.62 µM.
In the case of `CC(=O)Nc1ccc(Nc2c3ccccc3nc3ccccc23)cc1`, the AC50 is reported as 4.6 µM.
For `c1ccc(CCN(Cc2ccccc2)Cc2nc(C3CC3)no2)cc1`, the AC50 was 24.9 µM.
`C=CCN1C(=O)/C(=C/C=C2/N(CC)c3ccc(S(=O)(=O)N(C)C)cc3N2CC)SC1=S` showed an AC50 of 3.35 µM.
In the case of `COc1ccc([C@H]2C[C@H](O)[C@@H](n3cc(-c4ccc(F)cc4)nn3)CN2Cc2cccs2)cc1`, the AC50 is reported as 16 µM.
Work on `CCOC(=O)c1cc2c(=Cc3ccc(N(C)C)cc3)c3ccccc3n2[n+]1C` yielded an AC50 of 5.09 µM.
`COc1cc(/C=C2/SC(=S)N(Cc3ccccc3)C2=O)cc(Cl)c1O` showed an AC50 of 12.1 µM.
`COC(=O)c1ccccc1-c1c2ccc(=N)cc-2oc2cc(N)ccc12` was tested, and the AC50 was 0.181 µM.
For `Cc1cc(C)c2nc(Cl)c(CN(Cc3ccco3)C(=O)Nc3ccccc3C)cc2c1`, the AC50 was 2.87 µM.
With `O=C1OCC2=C1C(c1ccc3c(c1)OCO3)c1cc3c(cc1O2)OCO3` (centres undefined) the AC50 was 2.12 µM.
With `COc1ccc(OC)c(-c2cnc(OC(C)(C)C)nc2OC(C)(C)C)c1` the AC50 was 13.9 µM.
`COc1ccc([C@H]2CC(=O)C=C(c3ccc(OC)cc3OC)C2)cc1` was tested, and the AC50 was 0.681 µM.
With `O=c1c(O)c(-c2cccs2)oc2ccc(Cl)cc12` the AC50 was 6.12 µM.
Molecule `COc1cccc(C2=CC(c3ccccc3)n3nnnc3N2)c1` (centres undefined) has an AC50 of 3.85 µM.
`Cc1cc(Br)cc(/C=N/NC(=O)c2ccc3c(c2)OCO3)c1O` showed an AC50 of 6.69 µM.
`CC(=O)N1CCc2cc(S(=O)(=O)N3c4ccccc4CC3C)ccc21` (centres undefined) gave an AC50 of 6.73 µM.
In the case of `CC(C)(C)c1ccc(OCC(=O)Nc2ccc3c4c(cccc24)C(=O)NC3=O)cc1`, the AC50 is reported as 18.4 µM.
With `COc1ccc(COc2cc(-c3cccc(OC)c3)nc3ccc(NC(=O)c4ccc(OC)cc4)cc23)cc1` the AC50 was 1.89 µM.
For `OC[C@@H]1CN(Cc2ccc(-c3ccccc3)cc2)C[C@H](n2cnc3c(NC4CC4)ncnc32)O1`, the AC50 was > 50 µM.
Molecule `COC(=O)C1=CN(c2ccc3c(c2)OCO3)C(N)=C(C#N)C1c1cccc(F)c1` (centres undefined) has an AC50 of 1.55 µM.
In the case of `COc1cc(-c2noc(C)c2C#Cc2ccsc2)cc(OC)c1OC`, the AC50 is reported as 0.537 µM.
For `CCN(CC(=O)Nc1c(F)cccc1F)C(=O)C1CC1`, the AC50 was 33.1 µM.
`COC(=O)c1cc2c(=O)c3ccccc3oc2nc1/C=C/N(C)C` was tested, and the AC50 was 0.984 µM.
For `O=C(c1cccc(S(=O)(=O)N2CCN(c3ccc(F)cc3)CC2)c1)N1CCCC(C(F)(F)F)C1` (centres undefined), the AC50 was 16 µM.
`Cc1ccc(-c2csc(Nc3ccccn3)n2)cc1` gave an AC50 of 26.4 µM.
Work on `CCOC(=O)c1c(C)[nH]c(C(=O)N/N=C/c2ccc(OC)c(OC)c2)c1C` yielded an AC50 of 2.93 µM.
Molecule `Cc1cccc(Nc2nc(N)nc(-c3oc4ccccc4c3C)n2)c1` has an AC50 of 6.65 µM.
For `Cc1ccc(CNC(=O)c2ccc3c(=O)c(O)c(-c4ccc(C)cc4)[nH]c3c2)cc1`, the AC50 was 4.24 µM.
Molecule `Cc1ccc(C)c(C2NC(=O)c3ccccc3N2)c1` (centres undefined) has an AC50 of 2.91 µM.
`COc1ccc(-c2ccnc(-c3ccc(O)cc3)n2)cc1` gave an AC50 of 1.43 µM.
